Laboratory results reported in patent publication US10555930B2, “Complex of a glucopyranosyl derivative and preparation method and use thereof” (SUNSHINE LAKE PHARMA CO., LTD., priority 2015, dated 2020).

What was measured:
[1] = Measurement of solubility (Chinese Pharmacopoeia 2010 method); type: physicochemical
From the text: Judgement standard of solubility are shown as table A.

[2] = Measurement of stability (high-temperature, high-humidity and photostability tests; HPLC impurity content); type: physicochemical; conditions: for total impurity / purity: 210 nm
Experimental: An appropriate amount of the Complex (IA) sample (prepared from example 2) was weighed and tiled on a clean culture dish at a thickness of ≤5 mm, and analyzed under the following conditions:
The test sample was placed under a high temperature condition (60±2° C.) for 10 d, the relative indexes were measured at the fifth and tenth days. […] If no significant change, the test at 40° C. was not necessary.
The test sample was placed under a 25° C. and RH 90%±5% condition for 10 d, and the sample were measured at the fifth and tenth days. Test items should include a moisture-absorption weight gain. If weighting percentage of moisture absorption was more than 5%, the test should be carried out under a 25° C. and RH 75%±5% condition using the same method; If weighting percentage of moisture absorption was less than 5%, and other inspection items met the requirements, the test was not necessary. The constant humidity condition can be realized by adopting constant temperature humidity chamber or placing a saturated saline solution under a closed container. […]
The test sample was placed in light box or other suitable light vessel under a 4500 Lx±500 Lx of illuminance condition for 10 d, and the sample were measured at the fifth and tenth days.
The impurity content of the sample was calculated by the normalization method of peak area using an HPLC chromatographic instrument under the above condition, the analytic conditions were shown below:
The detection was performed on Agilent 1200DAD high pressure liquid chromatography spectrometer (Zorbax Eclipse Plus C18 150×4.6 mm chromatographic column).
The test condition of HPLC: the run time was 30 minutes (min); the column temperature was 35° C.; the detection was carried out at the wavelength of 210 nm and 225 nm;
Mobile phase: phase C: acetonitrile phase D: ultrapure water flow rate: 1.0 mL/min.
Gradient elution, the ratio of mobile phase was shown as table B.

[3] = Measurement of hygroscopicity (Chinese Pharmacopoeia 2010, part II, appendix XIXJ); type: physicochemical; conditions: 25° C.±1° C., constant humidity (ammonium chloride or ammonium sulfate saturated solution), 24 h
Experimental: Test method: According to the method regulated by Chinese pharmacopoeia 2010, part II, appendix XIXJ, a dry glass weighing bottle with a stopper (outside diameter is 50 mm, high is 15 mm) was placed in a thermostatic drier (an ammonium chloride or ammonium sulfate saturated solution was placed in the bottom) at 25° C.±1° C. before one day of experiment, the empty glass weighing bottle with a stopper was weighed accurately by using METTLERTOLEDO XP205DR analytical balance, and recorded as m1. An appropriate amount of the Complex (IA) sample (prepared from example 2) was tiled on the above weighing bottle at a thickness of 1 mm, which was weighed accurately and recorded as m2. Opening the bottle, the bottle was placed under the above constant temperature and humidity condition for 24 h […]. Closing the bottle with the stopper, the bottle was weighed accurately, and recorded as m3, the weight gain percentage (%) was calculated.
The judgement of the results hygroscopicity was shown as table C.

[4] = target: T1, human SGLT-1 (Homo sapiens, UniProt P13866); experiment: Inhibitory activity against SGLT-1, [14C]-AMG uptake in CHO cells; type: cell-based; conditions: CHO cells expressing human SGLT-1, [14C]-AMG
T1 construct: expressed in transfected cells; host or cells: CHO cells (Flp-in CHO)
T1 sequence (P13866 1-664): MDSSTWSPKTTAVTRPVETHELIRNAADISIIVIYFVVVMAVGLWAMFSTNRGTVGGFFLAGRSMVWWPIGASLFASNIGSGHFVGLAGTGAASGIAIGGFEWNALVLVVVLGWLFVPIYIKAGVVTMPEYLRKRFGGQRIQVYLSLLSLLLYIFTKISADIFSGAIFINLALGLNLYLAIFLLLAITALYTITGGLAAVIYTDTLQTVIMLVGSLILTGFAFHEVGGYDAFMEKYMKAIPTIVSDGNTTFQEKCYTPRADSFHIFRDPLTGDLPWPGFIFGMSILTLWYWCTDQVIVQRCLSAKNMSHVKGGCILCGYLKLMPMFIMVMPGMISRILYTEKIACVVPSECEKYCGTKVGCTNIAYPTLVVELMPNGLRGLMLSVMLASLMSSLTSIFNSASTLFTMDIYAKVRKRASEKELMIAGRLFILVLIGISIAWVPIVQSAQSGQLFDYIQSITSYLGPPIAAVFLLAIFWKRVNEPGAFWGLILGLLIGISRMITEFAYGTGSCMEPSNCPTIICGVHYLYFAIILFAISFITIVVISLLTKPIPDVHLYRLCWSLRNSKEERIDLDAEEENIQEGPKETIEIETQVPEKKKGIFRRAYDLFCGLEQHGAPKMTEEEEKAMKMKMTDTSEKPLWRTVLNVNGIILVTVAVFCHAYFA
Experimental: The following method was used for detecting inhibitory activity of the compounds of the invention against SGLT-1 and SGLT-2.
3×10^4 of FIP-in CHO cells transfected Mock and CHO cells expressing human SGLT-1/SGLT-2 gene were seeded into a 96-well cell culture plate; the cells were incubated for 12 hours, and then to each well was added 150 μL of Na-free buffer to wash the cells once; and then to each well were added 50 μL of Na buffer containing the compound at different concentrations and 0.5 μM [^14C]-AMG, and the plate was incubated in a incubator at 37° C. for 1 hour, the reaction was terminated by adding 150 μL of pre-cooled Na-free buffer; the cells were further washed with Na-free buffer 3 times and the residual liquid was removed; to each well was added 20 μL of pre-cooled NaOH ([…]), the plate was vibrated at 900 rpm for 5 min; and then to each well was added 80 μL of scintillation solution, the plate was vibrated at 600 rpm for 5 min; the plate was analyzed on liquid scintillation counter.

[5] = solvent DMA, sampling weight 100.02, solvent volume 0.095 mL
[6] = solvent DMSO, sampling weight 100.16, solvent volume 0.095 mL
[7] = solvent acetonitrile, sampling weight 100.20, solvent volume 2.90 mL
[8] = solvent ethanol, sampling weight 100.10, solvent volume 2.90 mL
[9] = solvent methanol, sampling weight 100.23, solvent volume 0.095 mL
[10] = high humidity (25° C., RH 90%±5%), 5 d, HPLC
[11] = high humidity (25° C., RH 90%±5%), 10 d, HPLC
[12] = high-temperature (60±2° C.), 5 d, HPLC
[13] = high-temperature (60±2° C.), 10 d, HPLC
[14] = illumination (4500 Lx±500 Lx), 5 d, HPLC
[15] = illumination (4500 Lx±500 Lx), 10 d, HPLC

Structure (SMILES): CCOc1ccc(Cc2cc([C@]34OC[C@]([C@@H](C)O)(O3)[C@@H](O)[C@H](O)[C@H]4O)ccc2Cl)cc1 [Complex (IA), Complex (IA) of (1R,2S,3S,4R,5S)-5-(4-chloro-3-(4-ethoxybenzyl)phenyl)-1-((1R)-1-hydroxyethyl)-6,8-dioxabicyclo[3.2.1]octane-2,3,4-triol (I-n) and L-pyroglutamic acid]
- solubility (summary in words) ([1]; in acetonitrile, methanol, ethanol, DMSO and DMA): good solubility
- solubility results [1, 5]: Very soluble (1 g (mL) of solute can be dissolved completely in a <1 mL of solvent)
- yes/no dissolved [1, 5]: yes
- solubility results [1, 6]: Very soluble (1 g (mL) of solute can be dissolved completely in a <1 mL of solvent)
- yes/no dissolved [1, 6]: yes
- solubility results [1, 7]: Soluble (1 g (mL) of solute can be dissolved completely in a 10 to <30 mL of solvent)
- yes/no dissolved [1, 7]: yes
- solubility results [1, 8]: Soluble (1 g (mL) of solute can be dissolved completely in a 10 to <30 mL of solvent)
- yes/no dissolved [1, 8]: yes
- solubility results [1, 9]: Very soluble (1 g (mL) of solute can be dissolved completely in a <1 mL of solvent)
- yes/no dissolved [1, 9]: yes
- yes/no dissolved ([1]; solvent water, sampling weight 10.33, solvent volume 102 mL): no
- total impurity ([2]; 0 d, HPLC peak area normalization): 0.15%
- purity ([2]; 0 d, HPLC): 99.85%
- purity [2, 10]: 99.85%
- total impurity [2, 10]: 0.15%
- purity [2, 11]: 99.81%
- total impurity [2, 11]: 0.19%
- purity [2, 12]: 99.83%
- total impurity [2, 12]: 0.17%
- purity [2, 13]: 99.81%
- total impurity [2, 13]: 0.19%
- stability (summary in words) ([2]; high-temperature, high humidity or illumination for 10 d): good stability
- purity [2, 14]: 99.83%
- total impurity [2, 14]: 0.17%
- purity [2, 15]: 99.78%
- total impurity [2, 15]: 0.22%
- weight gain percentage [3]: 0.27%
- SGLT-1 inhibitory activity [4]: has SGLT-2 and SGLT-1 inhibitory activity
